Read-outs that look alike come from different tables or passages of the source.
Tests used:
TMEM16A = details: cited from earlier work
TMEM16A (ANO1) [1] = target: T1, TMEM16A (ANO1) (Mus musculus, UniProt Q8BHY3); experiment: Activation of ANO1 current by divalent cations, excised inside-out patch with fast solution exchange; type: cell-based
T1 construct: We subcloned the coding region of the cDNA into pEGFP-N3 vector; expressed in transfected cells; host or cells: HEK293 cells
T1 sequence (Q8BHY3 1-956 isoform Q8BHY3-2): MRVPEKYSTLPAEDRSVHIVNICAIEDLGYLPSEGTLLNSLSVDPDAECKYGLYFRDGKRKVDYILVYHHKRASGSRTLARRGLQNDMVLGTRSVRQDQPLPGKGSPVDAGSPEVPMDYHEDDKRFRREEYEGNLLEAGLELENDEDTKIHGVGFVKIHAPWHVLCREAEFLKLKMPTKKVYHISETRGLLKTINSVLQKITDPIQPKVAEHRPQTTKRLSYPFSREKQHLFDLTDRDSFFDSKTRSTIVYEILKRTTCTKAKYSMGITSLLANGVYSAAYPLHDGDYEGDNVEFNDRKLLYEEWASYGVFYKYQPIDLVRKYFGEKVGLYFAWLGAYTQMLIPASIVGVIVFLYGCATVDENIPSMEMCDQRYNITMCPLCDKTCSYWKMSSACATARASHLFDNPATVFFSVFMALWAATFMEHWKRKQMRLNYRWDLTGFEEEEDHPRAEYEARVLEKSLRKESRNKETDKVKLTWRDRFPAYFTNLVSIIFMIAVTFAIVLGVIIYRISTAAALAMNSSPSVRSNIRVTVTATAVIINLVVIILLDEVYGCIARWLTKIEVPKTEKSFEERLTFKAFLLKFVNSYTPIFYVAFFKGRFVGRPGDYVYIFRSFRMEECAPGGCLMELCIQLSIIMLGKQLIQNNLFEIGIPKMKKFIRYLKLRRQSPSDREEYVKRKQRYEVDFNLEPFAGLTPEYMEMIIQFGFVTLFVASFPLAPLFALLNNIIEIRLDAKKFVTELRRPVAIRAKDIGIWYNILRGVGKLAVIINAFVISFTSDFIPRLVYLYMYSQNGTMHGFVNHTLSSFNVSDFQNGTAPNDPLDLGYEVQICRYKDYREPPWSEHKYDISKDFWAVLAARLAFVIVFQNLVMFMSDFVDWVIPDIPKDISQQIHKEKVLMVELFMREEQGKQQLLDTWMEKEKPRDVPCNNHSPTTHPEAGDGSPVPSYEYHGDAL
Excerpt: (§1) The mouse TMEM16A cDNA (NCBI reference sequence: NM_001242349.1) encoding ANO1 CaCC was a generous gift from Dr. Lily Jan. We subcloned the coding region of the cDNA into pEGFP-N3 vector (Clontech Laboratories, Inc.), resulting in a construct in which an enhanced green fluorescent protein (eGFP) was attached to the C-terminus of the ANO1 protein. The sequence was confirmed by commercially-available DNA sequencing service. This eGFP-attached ANO1 cDNA construct was used for channel expression throughout the study. The cDNA was transfected into human embryonic kidney (HEK) 293 cells using lipofectamine transfection methods, [42], [43]. A fluorescent light source and a GFP filter set (Chroma Technology Co.) in the DM IRB inverted microscope (Leica Microsystems) were used to identify transfected cells expressing channel proteins. Electrophysiological experiments were performed ∼24 to 72 hours after transfection.
(§2) All chemicals were reagent grade. Regular salts (such as NaCl, NaOH, CaCl2, SrCl2, BaCl2, MgCl2 or sodium salts of various anions) were purchased from Fisher Chemicals (Fair Lawn, NJ), J. T. Baker (Phillipsburg, NJ) or Sigma Chemicals Co. (St. Louis, MO). EGTA, HEPES, and NFA were from Sigma Chemicals Co. Excised inside-out patch-clamp recordings were performed throughout the study. The extracellular (pipette) solution in all experiments contained: 140 mM NaCl, 10 mM HEPES, 0.1 mM EGTA, pH = 7.4. The regular intracellular solution contained 10 mM HEPES and 140 mM sodium salt of Cl^− or other anions. Various concentrations of divalent cations were made by adding certain total concentrations of divalent cations (Cl^− salts) into the solution containing a defined concentration of EGTA. We defined the pipette solution as the “zero-Ca^2+” solution. A solution containing a saturating [Ca^2+] was made by adding 0.12 mM total [Ca^2+] into the aforementioned zero-Ca^2+ solution, resulting in a solution containing ∼20 µM free [Ca^2+]. For making non-saturating [Ca^2+] solutions, the solutions included 1 mM EGTA. To make solutions containing Sr^2+ and Ba^2+, only 0.1 mM EGTA was used. The pH of all solutions was adjusted to 7.4.
Because of weak Mg^2+-EGTA binding, we referred the total [Mg^2+] as the free [Mg^2+]. The free [Ca^2+], [Sr^2+], and [Ba^2+] were calculated using the MaxChelator program (Ver1.2) kindly provided by Chris Patton from the Stanford University. This program was developed based on the binding constants available in the National Institute of Standard and Technology (NIST) between EGTA and these three divalent cations. Table S1, Table S2, and Table S3 list respectively the calculated free [Ca^2+], [Sr^2+], and [Ba^2+] used in this study. All added divalent cations were Cl^− salts. […] For example, in a solution containing 5 mM, 10 mM or 30 mM MgCl2, only 130 mM, 120 mM or 80 mM of NaCl, respectively, were added to the solution.
The patch-clamp recording pipettes were fabricated from borosilicate glass capillaries (World Precision Instruments) using PP830 electrode puller (Narishige International). When filled with the pipette solution, the electrode resistance was ∼1.5–3 MΩ. The experiments were carried out at room temperature (20–23°C) using the Axopatch 200B amplifier controlled by the Digidata I/O converter and the pClamp9 software (Axon Instruments/Molecular Devices).
Solution exchange was achieved using the SF-77 solution exchanger (Warner Instruments). After the excised inside-out patch mode was established, the tip of the patch pipette was positioned at the exit of the solution-delivery pipes of the SF-77 solution exchanger. The switch of solution pipes was controlled by a digital signal delivered from the Digidata 1320 digitizing board. […]

CaCC of Xenopus oocytes = tested on: CaCC of Xenopus oocytes; parameters: method as in PMID 11279188; details: cited from earlier work
TMEM16A (ANO1) [2] = target: T1, TMEM16A (ANO1); experiment: NFA inhibition of ANO1 current, intracellular application to inside-out patch; type: cell-based
Excerpt: as §1, §2
The inhibition of ANO1 by intracellular NFA was achieved by directly applying NFA to the intracellular side of the membrane patch using fast-solution exchange. Except where indicated, the ANO1 current was induced by saturating [Ca^2+] followed by the application of various [NFA] in the solution containing the same [Ca^2+]. The steady-state current (I) at the end of NFA application was divided by the current in the absence of NFA (I0) before and after the drug application to obtain the percentage of current remained in the presence of NFA.
For dose-response inhibition by NFA, the current (I) measured at the end of the NFA application was normalized to the current amplitude in the absence of NFA (I0). The ratio I/I0 was then plotted against [NFA], and the concentration-dependent inhibition curve was fitted to a Langmuir function (eq. 2), I/I0 = 1/(1+ [NFA]/K1/2), where K1/2 is the half-inhibition [NFA].
For comparing two treatments that might differentially affect the apparent affinity of the NFA inhibition (for example, Fig. 8 C & D), the summation of the residual error (namely, the residual sum of squares of the error) from the curve fitting of each treatment was compared to the residual error from the curve fitting of the pooled data. If the former was statistically smaller than the latter using F test, the two regression curves would be considered different. The statistically significant level (α) was set at 0.05.

TMEM16A (ANO1) [3] = target: T1, TMEM16A (ANO1); experiment: as above; type: cell-based; remark: listed apart in the source

Compound: [Ca+2] [Ca^2+]
- EC50 (TMEM16A; +80 mV, read-out: K1/2,Ca): 0.063 µM
- EC50 (TMEM16A; −60 mV, lower end of literature range, read-out: half-effective concentration of Ca^2+ (K1/2,Ca)): < 0.1 µM
- EC50 (TMEM16A; −60 mV, upper end of literature range, read-out: half-effective concentration of Ca^2+ (K1/2,Ca)): > 2 µM
- difference of K1/2,Ca between +40 mV and −40 mV (TMEM16A (ANO1) [1]): 100 nM
- fraction of saturated current activated (TMEM16A (ANO1) [1]; 666 nM [Ca^2+], ±40 mV, in the presence or absence of 20 µM NFA): ~90%
- EC50 (TMEM16A (ANO1) [1]; +40 mV, fit to Hill equation (eq. 1), normalized to Is induced by 20 µM free Ca^2+, read-out: half-activation [Ca^2+] (K1/2,Ca)): 0.466 µM
- maximal ANO1 current activated by saturating divalent cation compared with Is induced by saturating [Ca^2+] (TMEM16A (ANO1) [1]; Is induced by 20 µM Ca^2+, ±40 mV): activated the channel to the same maximal current level
- Hill coefficient (n) of dose-response activation curve (TMEM16A (ANO1) [1]; values covering +40 and −40 mV): ~4
- EC50 (TMEM16A (ANO1) [1]; values covering +40 and −40 mV, read-out: K1/2 of ANO1 activation): ~0.5 µM

Compound: O=C(O)c1cccnc1Nc1cccc(C(F)(F)F)c1 [NFA, niflumic acid]
- sideness of the block (CaCC of Xenopus oocytes): from intracellular and extracellular sides with similar affinities
- effect of NFA on sensitivity of ANO1 to Ca^2+ activation (TMEM16A (ANO1) [2]; 20 µM NFA, current induced by 666 nM Ca^2+ at ±40 mV): not reduced
- IC50 (TMEM16A (ANO1) [2]; 140 mM intracellular NaBr, pipette 140 mM Cl^−, read-out: K1/2 of NFA inhibition): 39.2 ± 1.1 µM
- IC50 (TMEM16A (ANO1) [2]; 140 mM intracellular NaCl, pipette 140 mM Cl^−, read-out: K1/2 of NFA inhibition): 17.9 ± 1.1 µM
- IC50 (TMEM16A (ANO1) [2]; 140 mM intracellular NaI, pipette 140 mM Cl^−, read-out: K1/2 of NFA inhibition): 85.5 ± 3.6 µM
- IC50 (TMEM16A (ANO1) [2]; 140 mM intracellular NaNO3, pipette 140 mM Cl^−, read-out: K1/2 of NFA inhibition): 54.8 ± 3.4 µM
- IC50 (TMEM16A (ANO1) [2]; 140 mM intracellular NaSCN, pipette 140 mM Cl^−, read-out: K1/2 of NFA inhibition): 189 ± 7.4 µM
- voltage dependence of K1/2 of NFA inhibition (TMEM16A (ANO1) [2]; between −40 mV and +40 mV): not voltage dependent
- IC50 (TMEM16A (ANO1) [2]; current activated by 404 µM [Ba^2+], Vm = −20 mV, read-out: K1/2 of NFA inhibition): 22.6 µM
- IC50 (TMEM16A (ANO1) [2]; current induced by 20 µM Ca^2+, −40, −20, +20, +40 mV, read-out: half-blocking concentration (K1/2) of NFA): 18 to 20 µM
- IC50 (TMEM16A (ANO1) [2]; symmetrical 140 mM NaCl, −40 mV, read-out: K1/2 of NFA inhibition): 18.4 µM
- IC50 (TMEM16A (ANO1) [3]; symmetrical 4 mM NaCl (136 mM Na-Glutamate added), −40 mV, read-out: K1/2 of NFA inhibition): 7.9 µM
- increase of apparent affinity of NFA inhibition in 4 mM [Cl^−] compared with 140 mM [Cl^−] (TMEM16A (ANO1) [3]; symmetrical solutions): more than 2 fold

— paper PMC3906059, “Activation and Inhibition of TMEM16A Calcium-Activated Chloride Channels” (PLoS ONE, 2014)
